# From patent US11053204B2, “Pyrimidinyloxy benzene derivatives as herbicides” (FMC Corporation, priority 2015, dated 2021)
# What was measured:
# Assay type in all cases: in vivo
# [1] = system: nightshade (eastern black nightshade, Solanum ptycanthum); assay: Test C preemergence, plant response rating
# [2] = system: oat, wild (wild oat Avena fatua); assay: Test C preemergence, plant response rating
# [3] = system: windgrass (Apera spica-venti); assay: Test C preemergence, plant response rating
# [4] = system: surinam grass (Brachiaria decumbens); assay: Test C preemergence, plant response rating
# [5] = system: galium (catchweed bedstraw, Galium aparine); assay: Test C preemergence, plant response rating
# [6] = system: pigweed, palmer (palmer pigweed, Amaranthus palmeri); assay: Test C preemergence, plant response rating
# [7] = system: johnsongrass (Sorghum halepense); assay: Test C preemergence, plant response rating
# [8] = system: barnyardgrass (Echinochloa crus-galli); assay: Test C preemergence, plant response rating; conditions: Preemergence
# [9] = system: wild poinsettia (Euphorbia heterophylla); assay: Test C preemergence, plant response rating
# [10] = system: nightshade (eastern black nightshade, Solanum ptycanthum); assay: Test C postemergence, plant response rating; conditions: for Nightshade plant response rating: scale 0 to 100 (0 no effect, 100 complete control)
# Summary of the method: (§1)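 After sowing in loam–sand blend or silt loam, pots were sprayed preemergence; separately grown 1- to 4-leaf plants were sprayed postemergence. Following 13 to 15 d under greenhouse conditions, injury was rated visually on a 0 to 100 scale.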
# [11] = system: pigweed, palmer (palmer pigweed, Amaranthus palmeri); assay: Test C postemergence, plant response rating; conditions: for Pigweed, Palmer plant response rating: scale 0 to 100 (0 no effect, 100 complete control)
# Summary of the method: as §1
# [12] = system: speedwell (bird's-eye speedwell, Veronica persica); assay: Test C postemergence, plant response rating; conditions: for Speedwell plant response rating: scale 0 to 100 (0 no effect, 100 complete control)
# Summary of the method: as §1
# [13] = system: buckwheat, wild (wild buckwheat, Polygonum convolvulus); assay: Test C postemergence, plant response rating; conditions: for Buckwheat, Wild plant response rating: scale 0 to 100 (0 no effect, 100 complete control)
# Summary of the method: as §1
# [14] = system: Canada thistle (Cirsium arvense); assay: Test C postemergence, plant response rating; conditions: for Canada Thistle plant response rating: scale 0 to 100 (0 no effect, 100 complete control)
# Summary of the method: as §1
# [15] = system: windgrass (Apera spica-venti); assay: Test C postemergence, plant response rating
# Summary of the method: as §1
# [16] = system: wild mustard (Sinapis arvensis); assay: Test C postemergence, plant response rating; conditions: for Mustard, Wild plant response rating: scale 0 to 100 (0 no effect, 100 complete control)
# Summary of the method: as §1
# [17] = system: geranium, cutleaf (cutleaf geranium, Geranium dissectum); assay: Test C postemergence, plant response rating; conditions: for Geranium, Cutleaf plant response rating: scale 0 to 100 (0 no effect, 100 complete control)
# Summary of the method: as §1
# [18] = system: field violet (Viola arvensis); assay: Test C postemergence, plant response rating; conditions: for Field Violet plant response rating: scale 0 to 100 (0 no effect, 100 complete control)
# Summary of the method: as §1
# [19] = system: field poppy (Papaver rhoeas); assay: Test C postemergence, plant response rating; conditions: for Field Poppy plant response rating: scale 0 to 100 (0 no effect, 100 complete control)
# Summary of the method: as §1
smiles,measurement,setting,value
C=C(Br)COC(=O)c1c(Br)cccc1Oc1ncc(Cl)cn1 [Compound 61],"Plant response rating, Nightshade","[1]; 16 g ai/ha, scale 0 to 100",60
same,"Plant response rating, Nightshade","[1]; 31 g ai/ha, scale 0 to 100",60
same,"Plant response rating, Nightshade","[1]; 62 g ai/ha, scale 0 to 100",50
same,"Plant response rating, Nightshade","[1]; 125 g ai/ha, scale of 0 to 100",75
same,"Plant response rating, Oat, Wild","[2]; 16 g ai/ha, scale 0 to 100",0
same,"Plant response rating, Oat, Wild","[2]; 31 g ai/ha, scale 0 to 100",0
same,"Plant response rating, Oat, Wild","[2]; 62 g ai/ha, scale 0 to 100",5
same,"Plant response rating, Oat, Wild","[2]; 125 g ai/ha, scale of 0 to 100",5
same,"Plant response rating, Windgrass","[3]; 16 g ai/ha, scale 0 to 100",0
same,"Plant response rating, Windgrass","[3]; 31 g ai/ha, scale 0 to 100",5
same,"Plant response rating, Windgrass","[3]; 62 g ai/ha, scale 0 to 100",40
same,"Plant response rating, Windgrass","[3]; 125 g ai/ha, scale of 0 to 100",70
same,"Plant response rating, Surinam Grass","[4]; 16 g ai/ha, scale 0 to 100",0
same,"Plant response rating, Surinam Grass","[4]; 31 g ai/ha, scale 0 to 100",10
same,"Plant response rating, Surinam Grass","[4]; 62 g ai/ha, scale 0 to 100",60
same,"Plant response rating, Surinam Grass","[4]; 125 g ai/ha, scale of 0 to 100",25
same,"Plant response rating, Galium","[5]; 16 g ai/ha, scale 0 to 100",0
same,"Plant response rating, Galium","[5]; 31 g ai/ha, scale 0 to 100",0
same,"Plant response rating, Galium","[5]; 62 g ai/ha, scale of 0 to 100",10
same,"Plant response rating, Galium","[5]; 125 g ai/ha, scale of 0 to 100",15
same,"Plant response rating, Pigweed, Palmer","[6]; 16 g ai/ha, scale 0 to 100",40
same,"Plant response rating, Pigweed, Palmer","[6]; 31 g ai/ha, scale 0 to 100",50
same,"Plant response rating, Pigweed, Palmer","[6]; 62 g ai/ha, scale 0 to 100",70
same,"Plant response rating, Pigweed, Palmer","[6]; 125 g ai/ha, scale of 0 to 100",75
same,"Plant response rating, Johnsongrass","[7]; 16 g ai/ha, scale 0 to 100",0
same,"Plant response rating, Johnsongrass","[7]; 31 g ai/ha, scale 0 to 100",0
same,"Plant response rating, Johnsongrass","[7]; 62 g ai/ha, scale 0 to 100",0
same,"Plant response rating, Johnsongrass","[7]; 125 g ai/ha, scale of 0 to 100",20
same,"Plant response rating, Barnyardgrass","[8]; 62 g ai/ha, scale of 0 to 100",50
same,"Plant response rating, Barnyardgrass","[8]; 125 g ai/ha, scale of 0 to 100",65
same,"Plant response rating, Barnyardgrass","[8]; 16 g ai/ha, scale 0 to 100",0
same,"Plant response rating, Barnyardgrass","[8]; 31 g ai/ha, scale 0 to 100",0
same,"Plant response rating, Poinsettia, Wild","[9]; 16 g ai/ha, scale 0 to 100",0
same,"Plant response rating, Poinsettia, Wild","[9]; 31 g ai/ha, scale 0 to 100",0
same,"Plant response rating, Poinsettia, Wild","[9]; 62 g ai/ha, scale 0 to 100",0
same,"Plant response rating, Poinsettia, Wild","[9]; 125 g ai/ha, scale of 0 to 100",0
O=C(CCCC(F)(F)F)c1c(Cl)cccc1Oc1ncc(Cl)cn1 [Compound 143],"Plant response rating, Oat, Wild","[2]; 31 g ai/ha, scale 0 to 100",0
same,"Plant response rating, Oat, Wild","[2]; 62 g ai/ha, scale 0 to 100",5
same,"Plant response rating, Oat, Wild","[2]; 125 g ai/ha, scale of 0 to 100",5
same,"Plant response rating, Windgrass","[3]; 31 g ai/ha, scale 0 to 100",85
same,"Plant response rating, Windgrass","[3]; 62 g ai/ha, scale 0 to 100",100
same,"Plant response rating, Windgrass","[3]; 125 g ai/ha, scale of 0 to 100",100
same,"Plant response rating, Surinam Grass","[4]; 31 g ai/ha, scale 0 to 100",10
same,"Plant response rating, Surinam Grass","[4]; 62 g ai/ha, scale 0 to 100",35
same,"Plant response rating, Surinam Grass","[4]; 125 g ai/ha, scale of 0 to 100",50
same,"Plant response rating, Galium","[5]; 31 g ai/ha, scale 0 to 100",30
same,"Plant response rating, Galium","[5]; 62 g ai/ha, scale 0 to 100",80
same,"Plant response rating, Galium","[5]; 125 g ai/ha, scale of 0 to 100",80
same,"Plant response rating, Pigweed, Palmer","[6]; 31 g ai/ha, scale 0 to 100",100
same,"Plant response rating, Pigweed, Palmer","[6]; 62 g ai/ha, scale 0 to 100",100
same,"Plant response rating, Pigweed, Palmer","[6]; 125 g ai/ha, scale of 0 to 100",100
same,"Plant response rating, Johnsongrass","[7]; 31 g ai/ha, scale 0 to 100",25
same,"Plant response rating, Johnsongrass","[7]; 62 g ai/ha, scale 0 to 100",50
same,"Plant response rating, Johnsongrass","[7]; 125 g ai/ha, scale of 0 to 100",80
same,"Plant response rating, Nightshade","[10]; 16 g ai/ha, scale of 0 to 100",65
same,"Plant response rating, Nightshade","[10]; 31 g ai/ha, scale 0 to 100",85
same,Nightshade plant response rating,[10]; 62 g ai/ha,90
same,Nightshade plant response rating,[10]; 125 g ai/ha,90
same,"Plant response rating, Pigweed, Palmer","[11]; 16 g ai/ha, scale of 0 to 100",45
same,"Plant response rating, Pigweed, Palmer","[11]; 31 g ai/ha, scale 0 to 100",75
same,"Pigweed, Palmer plant response rating",[11]; 62 g ai/ha,80
same,"Pigweed, Palmer plant response rating",[11]; 125 g ai/ha,100
same,"Plant response rating, Speedwell","[12]; 16 g ai/ha, scale of 0 to 100",80
same,"Plant response rating, Speedwell","[12]; 31 g ai/ha, scale 0 to 100",80
same,Speedwell plant response rating,[12]; 62 g ai/ha,85
same,Speedwell plant response rating,[12]; 125 g ai/ha,100
same,"Plant response rating, Buckwheat, Wild","[13]; 16 g ai/ha, scale of 0 to 100",75
same,"Plant response rating, Buckwheat, Wild","[13]; 31 g ai/ha, scale 0 to 100",85
same,"Buckwheat, Wild plant response rating",[13]; 62 g ai/ha,100
same,"Buckwheat, Wild plant response rating",[13]; 125 g ai/ha,100
same,"Plant response rating, Canada Thistle","[14]; 16 g ai/ha, scale of 0 to 100",85
same,"Plant response rating, Canada Thistle","[14]; 31 g ai/ha, scale 0 to 100",85
same,Canada Thistle plant response rating,[14]; 62 g ai/ha,90
same,Canada Thistle plant response rating,[14]; 125 g ai/ha,100
same,"Plant response rating, Windgrass","[15]; 16 g ai/ha, scale of 0 to 100",30
same,"Plant response rating, Windgrass","[15]; 31 g ai/ha, scale 0 to 100",35
same,Windgrass plant response rating,"[15]; 125 g ai/ha, scale 0 to 100 (0 no effect, 100 complete control)",40
same,"Plant response rating, Mustard, Wild","[16]; 16 g ai/ha, scale of 0 to 100",100
same,"Plant response rating, Mustard, Wild","[16]; 31 g ai/ha, scale 0 to 100",100
same,"Mustard, Wild plant response rating",[16]; 62 g ai/ha,100
same,"Mustard, Wild plant response rating",[16]; 125 g ai/ha,100
same,"Plant response rating, Geranium, Cutleaf","[17]; 16 g ai/ha, scale of 0 to 100",30
same,"Plant response rating, Geranium, Cutleaf","[17]; 31 g ai/ha, scale 0 to 100",50
same,"Geranium, Cutleaf plant response rating",[17]; 62 g ai/ha,60
same,"Geranium, Cutleaf plant response rating",[17]; 125 g ai/ha,75
same,"Plant response rating, Field Violet","[18]; 16 g ai/ha, scale of 0 to 100",75
same,"Plant response rating, Field Violet","[18]; 31 g ai/ha, scale 0 to 100",80
same,Field Violet plant response rating,[18]; 62 g ai/ha,98
same,Field Violet plant response rating,[18]; 125 g ai/ha,100
same,"Plant response rating, Field Poppy","[19]; 16 g ai/ha, scale of 0 to 100",80
same,"Plant response rating, Field Poppy","[19]; 31 g ai/ha, scale 0 to 100",90
same,Field Poppy plant response rating,[19]; 62 g ai/ha,90
same,Field Poppy plant response rating,[19]; 125 g ai/ha,100
same,"Plant response rating, Poinsettia, Wild","[9]; 31 g ai/ha, scale 0 to 100",5
same,"Plant response rating, Poinsettia, Wild","[9]; 62 g ai/ha, scale 0 to 100",20
same,"Plant response rating, Poinsettia, Wild","[9]; 125 g ai/ha, scale of 0 to 100",25
